{
  "source": "ChEMBL document CHEMBL1151496",
  "about": "“Nonpeptide GPIIB/IIIA inhibitors. 16. Thieno[2,3-b]thiophene -sulfonamides are potent inhibitors of platelet aggregation” (Bioorg Med Chem Lett, 1997)",
  "key": {"[1]": {"tested_on": "Canis familiaris", "experiment": "Tested ex vivo inhibition of platelet aggregation after oral dose of 200 ug/kg through out 24 hr in dog", "format": "functional", "conditions": "Canis lupus familiaris"}, "[2]": {"species_on_record": "Homo sapiens", "experiment": "Measured by competition with fluorescent ligand L-762,745 for binding to resting human gel filtered platelets using flow cytometry", "format": "functional"}, "[3]": {"species_on_record": "Homo sapiens", "experiment": "Tested for the inhibition of [125 I] -L 692,884 binding to purified GPIIb/IIIa coated onto yttrium silicate Scintillation proximity assay fluomicrospheres"}, "[4]": {"species_on_record": "Homo sapiens", "experiment": "The compound was tested for the inhibition of platelet aggregation", "format": "functional"}, "[5]": {"tested_on": "Canis familiaris", "experiment": "Tested ex vivo inhibition of platelet aggregation after oral dose of 200 ug/kg through out 8 hr in dog", "format": "functional", "conditions": "Canis lupus familiaris"}},
  "data": [
    {"smiles": "O=C(NC[C@H](NS(=O)(=O)c1ccccc1)C(=O)O)c1cc2cc(CCC3CCNCC3)sc2s1", "values": [
      {"measurement": "inhibition in vivo at 0.2 mg/kg", "setting": "[1]", "result": 50, "unit": "%"},
      {"measurement": "Kd", "setting": "[2]", "result": 0.023, "unit": "nM"},
      {"measurement": "ED50", "setting": "[3]", "result": 0.03, "unit": "nM"},
      {"measurement": "IC50", "setting": "[4]", "result": 8, "unit": "nM"},
      {"measurement": "inhibition in vivo at 0.2 mg/kg", "setting": "[5]", "result": "> 80", "unit": "%"}
    ]},
    {"smiles": "O=C(NC[C@H](NS(=O)(=O)c1cccnc1)C(=O)O)c1cc2cc(CCCC3CCNCC3)sc2s1", "values": [
      {"measurement": "IC50", "setting": "[4]", "result": 21, "unit": "nM"}
    ]},
    {"smiles": "O=C(NC[C@H](NS(=O)(=O)c1cccnc1)C(=O)O)c1cc2cc(CCC3CCNCC3)sc2s1", "values": [
      {"measurement": "IC50", "setting": "[4]", "result": 8, "unit": "nM"}
    ]},
    {"smiles": "O=C(NC[C@H](NS(=O)(=O)c1ccccc1)C(=O)O)c1cc2sc(CCC3CCNCC3)cc2s1", "values": [
      {"measurement": "Kd", "setting": "[2]", "result": 0.15, "unit": "nM"},
      {"measurement": "ED50", "setting": "[3]", "result": 0.08, "unit": "nM"},
      {"measurement": "IC50", "setting": "[4]", "result": 8, "unit": "nM"}
    ]},
    {"smiles": "O=C(NC[C@H](NS(=O)(=O)c1ccc(Cl)cc1)C(=O)O)c1cc2cc(CCC3CCNCC3)sc2s1", "values": [
      {"measurement": "Kd", "setting": "[2]", "result": 0.026, "unit": "nM"},
      {"measurement": "ED50", "setting": "[3]", "result": 0.09, "unit": "nM"},
      {"measurement": "IC50", "setting": "[4]", "result": 11, "unit": "nM"}
    ]},
    {"smiles": "O=C(NC[C@H](NS(=O)(=O)c1cccs1)C(=O)O)c1cc2sc(CCC3CCNCC3)cc2s1", "values": [
      {"measurement": "Kd", "setting": "[2]", "result": 0.092, "unit": "nM"},
      {"measurement": "ED50", "setting": "[3]", "result": 0.04, "unit": "nM"},
      {"measurement": "IC50", "setting": "[4]", "result": 13, "unit": "nM"}
    ]},
    {"smiles": "CCCCS(=O)(=O)N[C@@H](CNC(=O)c1cc2cc(CCC3CCNCC3)sc2s1)C(=O)O", "values": [
      {"measurement": "Kd", "setting": "[2]", "result": 5.6, "unit": "nM"},
      {"measurement": "ED50", "setting": "[3]", "result": 0.12, "unit": "nM"},
      {"measurement": "IC50", "setting": "[4]", "result": 32, "unit": "nM"}
    ]},
    {"smiles": "O=C(NC[C@H](NS(=O)(=O)c1cccnc1)C(=O)O)c1cc2cc(CC3CCNCC3)sc2s1", "values": [
      {"measurement": "IC50", "setting": "[4]", "result": 23, "unit": "nM"}
    ]},
    {"smiles": "O=C(NCc1ccccc1)N[C@@H](CNC(=O)c1cc2cc(CCC3CCNCC3)sc2s1)C(=O)O", "values": [
      {"measurement": "Kd", "setting": "[2]", "result": 94, "unit": "nM"},
      {"measurement": "ED50", "setting": "[3]", "result": 1.9, "unit": "nM"},
      {"measurement": "IC50", "setting": "[4]", "result": 76, "unit": "nM"}
    ]},
    {"smiles": "O=C(NCc1ccccc1)N[C@@H](CNC(=O)c1cc2sc(CCC3CCNCC3)cc2s1)C(=O)O", "values": [
      {"measurement": "Kd", "setting": "[2]", "result": 33, "unit": "nM"},
      {"measurement": "ED50", "setting": "[3]", "result": 2.6, "unit": "nM"},
      {"measurement": "IC50", "setting": "[4]", "result": 36, "unit": "nM"}
    ]},
    {"smiles": "O=C(O)CCNC(=O)c1cc2cc(CCC3CCNCC3)sc2s1", "values": [
      {"measurement": "ED50", "setting": "[3]", "result": 48, "unit": "nM"},
      {"measurement": "IC50", "setting": "[4]", "result": 410, "unit": "nM"}
    ]},
    {"smiles": "O=C(NC[C@H](NS(=O)(=O)c1cccs1)C(=O)O)c1cc2cc(CCC3CCNCC3)sc2s1", "values": [
      {"measurement": "Kd", "setting": "[2]", "result": 0.15, "unit": "nM"},
      {"measurement": "ED50", "setting": "[3]", "result": 0.04, "unit": "nM"},
      {"measurement": "IC50", "setting": "[4]", "result": 9, "unit": "nM"}
    ]},
    {"smiles": "CCCCS(=O)(=O)N[C@@H](CNC(=O)c1cc2sc(CCC3CCNCC3)cc2s1)C(=O)O", "values": [
      {"measurement": "Kd", "setting": "[2]", "result": 3, "unit": "nM"},
      {"measurement": "ED50", "setting": "[3]", "result": 0.21, "unit": "nM"},
      {"measurement": "IC50", "setting": "[4]", "result": 10, "unit": "nM"}
    ]},
    {"smiles": "O=C(O)CCNC(=O)c1cc2sc(CCC3CCNCC3)cc2s1", "values": [
      {"measurement": "Kd", "setting": "[2]", "result": "~600", "unit": "nM"},
      {"measurement": "IC50", "setting": "[4]", "result": 500, "unit": "nM"}
    ]}
  ]
}
